Measurements reported in patent US12458605B2, “Lipid nanoparticle” (National University Corporation Hokkaido University, priority 2020, dated 2025).

What was measured:
[1] = test system: liver; assay: In vivo Fluc activity of FlucmRNA-loaded LNP by in vivo imaging, liver; settings: Balb/c mice, FlucmRNA-loaded LNP i.v. 0.1 mg mRNA/kg, 6 hours
Outline: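 Read-out is average radiance (p/s/cm2/sr, about 560 nm) from whole-animal imaging of liver and spleen 6 h post-dose, after tail-vein luciferin at 1.5 mg/mouse. Dosing was intravenous, 0.1 mg mRNA/kg, in 7-week-old female Balb/c mice.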

[2] = Average particle size (ζ-Average) and PDI by dynamic light scattering (Zetasizer Nano ZSP); format: physicochemical
Outline: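 Dynamic light scattering of the particles in PBS(−) gave both the polydispersity index and the ζ-Average mean size.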

[3] = Average particle size and PDI by dynamic light scattering (Zetasizer Nano ZS); format: physicochemical
Procedure: (§1) The average particle size (number-average value) and PDI in PBS(−) and zeta potential in 10 mM HEPES buffer solution (pH 7.4) of lipid nanoparticles were measured using “Zetasizer Nano ZS ZEN3600”, an analyzer utilizing dynamic light scattering (manufactured by Malvern).

[4] = Zeta potential in 10 mM HEPES buffer (pH 7.4); format: physicochemical
Procedure: as §1

[5] = Nucleic acid encapsulation rate by Ribogreen (section II); format: physicochemical; settings: for % mRNA encapsulation: NlucmRNA-loaded LNP, 60:10:40:1; for % pDNA encapsulation: pFluc-loaded LNP
Procedure: The encapsulation rates of siRNA, mRNA, and pDNA of lipid nanoparticles were measured using Ribogreen (manufactured by life technologies).

[6] = F7siRNA-loaded LNP, 50:10:38.5:1.5, N/P ratio 6
[7] = FlucmRNA-loaded LNP, 50:10:38.5:1.5
[8] = FlucmRNA-loaded LNP, lipid:DSPC:cholesterol:DMG-PEG2K 50:10:38.5:1.5
[9] = NlucmRNA-loaded LNP, 60:10:40:1
[10] = NlucmRNA-loaded LNP, lipid:DSPC:cholesterol:PEG-DMG 60:10:40:1
[11] = pFluc-loaded LNP, 50:10:40:1.5, N/P ratio 6
[12] = pFluc-loaded LNP, 50:10:40:1.5, N/P ratio 9

PDI [2, 6]	ζ-Average (nm) [2, 6]	PDI [2, 7]	ζ-Average (nm) [2, 8]	PdI [3, 9]	ζ-Average (nm) [3, 10]	ζ-Average (nm) [3, 11]	ζ-Average (nm) [3, 12]	PdI ([3]; pFluc-loaded LNP, N/P ratio 6)	PdI ([3]; pFluc-loaded LNP, N/P ratio 9)	ζ-potential (mV) [4, 9]	ζ-potential (mV) ([4]; pFluc-loaded LNP, N/P ratio 6)	ζ-potential (mV) ([4]; pFluc-loaded LNP, N/P ratio 9)	% mRNA encapsulation [5]	% pDNA encapsulation ([5]; N/P ratio 6)	% pDNA encapsulation ([5]; N/P ratio 9)	SMILES	Fluc Activity in liver [1]
0.048	85.14 nm	0.030	81.21 nm	0.13	109.6 nm	74.48 nm	90.6 ± 7 nm	0.11	0.19 ± 0.05	−1.76 mV	−2.46 mV	−1.3 ± 0.7 mV	91.7%	97.6%	94.5 ± 3.6%	CCCN(CCC)CCCCC(O)(CCCCCCOC(=O)C(CCC(C)CC(C)(C)C)C(C)CC(C)(C)C)CCCCCCOC(=O)C(CCC(C)CC(C)(C)C)C(C)CC(C)(C)C (stereo not shown) [CL4G6, 7-(4-(dipropylamino)butyl)-7-hydroxytridecan-1,13-diyl bis(2-(4.4-dimethylpentan-2-yl)-5,7,7-trimethyloctanoate)]	4.58E+07 Avg Radiance [p/s/cm2/sr]
0.044	105.9 nm	0.002	115.50 nm	0.162	92.52 nm	109.4 nm	105.7 ± 8.6 nm	0.07	0.13 ± 0.02	−2.16 mV	−2.02 mV	−1.2 ± 0.4 mV	90.3%	95.4%	93.1 ± 3.3%	CCCCCCCCC(CCCCCC)C(=O)OCCCCCCC(O)(CCCCCCOC(=O)C(CCCCCC)CCCCCCCC)CCCCOC(=O)C1CCN(C)CC1 (stereo not shown) [CL15F6]	6.28E+06 Avg Radiance [p/s/cm2/sr]
